Measurements taken from patent publication US11332440B2, “4-oxo-alkylated tetramic acid compound, and preparation method thereof” (priority 2017, dated 2022).

test system: Drosophilae containing and expressing human Abeta42 gene; test: Pavlov's olfactory-related instantaneous memory test in Drosophila; format: in vivo; settings: increasing dosage, compared with memantine hydrochloride; FIG. 3
Source text: Drosophila has a classical learning and memory paradigm, known as Pavlov's olfactory-related instantaneous memory. During the training program, a group of about 100 drosophilae were exposed sequentially to two odors, i.e., 3-octanol and 4-methylcyclohexanol, each odor for 60 seconds, and to fresh air for 45 seconds therebetween. During exposure to the first odor, the drosophilae were electrocuted on their feet (1.5-second pulses at 3.5-second intervals, 60V), while no electrocution was exerted during exposure to the second odor. In order to detect “instantaneous memory” (also known as “learning”), drosophilae were transferred to the selection area in the T maze immediately after training and forced to choose between the two odors. The drosophilae in each T-maze arm were then captured, anesthetized, and counted. The behavior index was calculated from the distribution of drosophilae in the T maze. […] In each experiment, the age of the control group was matched with that of the experimental group.
Pharmacodynamic evaluation of the candidate compounds: Drosophilae containing and expressing human Abeta42 gene were selected as a diseased control, and drosophilae containing but not expressing human Abeta42 gene were selected as a healthy control. The day after emergence of the drosophilae, male drosophilae were selected and fed. […] The above memory test was performed on the drosophilae on the tenth day.

Structure (SMILES)	dose-effect relationship to improve memory of drosophilae with Alzheimer's disease
O=C1C=C(OCc2ccccc2F)[C@H](Cc2ccccc2)N1 [Compound 51121]	eventually reaches or exceeds the level of the activity of the positive compound memantine hydrochloride
O=C1C=C(OCc2cccs2)[C@H](Cc2ccccc2)N1 [Compound 51151]	eventually reaches or exceeds the level of the activity of the positive compound memantine hydrochloride
O=C1C=C(OCc2cccc3ccccc23)[C@H](Cc2ccccc2)N1 [Compound 51311]	eventually reaches or exceeds the level of the activity of the positive compound memantine hydrochloride
CC(=O)Oc1ccc(COC2=CC(=O)N[C@H]2Cc2ccccc2)cc1 [Compound 51351]	eventually reaches or exceeds the level of the activity of the positive compound memantine hydrochloride
